Assays:
Type in all cases: in vivo
[1] = system: barnyardgrass (Echinochloa crus-galli); assay: Test G Pre-Emergence Protocol; settings: Echinochloa crus-galli, pre-emergence, 312 h, evaluated after 13 days; for pest or weed control at 15.625 g/ha: 15.625 g ai/ha, read-out: Barnyard grass damage rating (100=total damage to plant; 0=no damage to plant); for pest or weed control at 62.5 g/ha: 62.5 g ai/ha, 100=total damage to plant, 0=no damage to plant, read-out: plant damage rating, Barnyardgrass; for pest or weed control at 250 g/ha: 250 g ai/ha, read-out: Barnyardgrass damage rating (100=total damage to plant; 0=no damage to plant)
Procedure, shortened: (§1)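 Under a 24/16° C day/night regime with 14 h light and 65% humidity, sown pots were sprayed after one day with compound (15.625, 62.5 or 250 g/ha; 50:50 acetone/water, 0.5% Tween 20). Damage was assessed visually 13 days later, 0 to 100.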

corn (Zea mays) [2] = assay: Test G Pre-Emergence Protocol; settings: Zea mays, pre-emergence, 312 h, evaluated after 13 days; for plant injury at 15.625 g/ha: 15.625 g ai/ha; for plant injury at 15.625 g/ha / plant injury at 250 g/ha: read-out: Corn damage rating (100=total damage to plant; 0=no damage to plant); for plant injury at 62.5 g/ha: 62.5 g ai/ha, 100=total damage to plant, 0=no damage to plant, read-out: plant damage rating, Corn; for plant injury at 250 g/ha: 250 g ai/ha
Procedure, shortened: as §1

[3] = system: giant foxtail (Setaria faberi); assay: Test G Pre-Emergence Protocol; settings: Setaria faberi, pre-emergence, 312 h, evaluated after 13 days; for pest or weed control at 15.625 g/ha: 15.625 g ai/ha; for pest or weed control at 15.625 g/ha / pest or weed control at 250 g/ha: read-out: Foxtail, Giant damage rating (100=total damage to plant; 0=no damage to plant); for pest or weed control at 62.5 g/ha: 62.5 g ai/ha, 100=total damage to plant, 0=no damage to plant, read-out: plant damage rating, Foxtail, Giant; for pest or weed control at 250 g/ha: 250 g ai/ha
Procedure, shortened: as §1

[4] = system: ivy-leaved morning glory (Ipomoea hederacea); assay: Test G Pre-Emergence Protocol; settings: Ipomoea, pre-emergence, 312 h, evaluated after 13 days; for pest or weed control at 15.625 g/ha: 15.625 g ai/ha, read-out: Morning-glory, Ivy-leaved damage rating (100=total damage to plant; 0=no damage to plant); for pest or weed control at 62.5 g/ha: 62.5 g ai/ha, 100=total damage to plant, 0=no damage to plant, read-out: plant damage rating, Morningglory, Ivy-leaved; for pest or weed control at 250 g/ha: 250 g ai/ha, read-out: Morningglory, Ivy-leaved damage rating (100=total damage to plant; 0=no damage to plant)
Procedure, shortened: as §1

[5] = system: redroot pigweed (Amaranthus retroflexus); assay: Test G Pre-Emergence Protocol; settings: Amaranthus retroflexus, pre-emergence, 312 h, evaluated after 13 days; for pest or weed control at 15.625 g/ha: 15.625 g ai/ha; for pest or weed control at 15.625 g/ha / pest or weed control at 250 g/ha: read-out: Pigweed, Redroot damage rating (100=total damage to plant; 0=no damage to plant); for pest or weed control at 62.5 g/ha: 62.5 g ai/ha, 100=total damage to plant, 0=no damage to plant, read-out: plant damage rating, Pigweed, Redroot; for pest or weed control at 250 g/ha: 250 g ai/ha
Procedure, shortened: as §1

[6] = system: velvetleaf (Abutilon theophrasti); assay: Test G Pre-Emergence Protocol; settings: Abutilon theophrasti, pre-emergence, 312 h, evaluated after 13 days; for pest or weed control at 15.625 g/ha: 15.625 g ai/ha; for pest or weed control at 15.625 g/ha / pest or weed control at 250 g/ha: read-out: Velvetleaf damage rating (100=total damage to plant; 0=no damage to plant); for pest or weed control at 62.5 g/ha: 62.5 g ai/ha, 100=total damage to plant, 0=no damage to plant, read-out: plant damage rating, Velvetleaf; for pest or weed control at 250 g/ha: 250 g ai/ha
Procedure, shortened: as §1

[7] = system: barnyardgrass (Echinochloa crus-galli); assay: Test G Post-Emergence Protocol; settings: Echinochloa crus-galli, post-emergence, 312 h; for pest or weed control at 15.625 g/ha: 15.625 g ai/ha, evaluated after 13 days (100=total damage to plant; 0=no damage to plant), read-out: Barnyardgrass damage rating; for pest or weed control at 62.5 g/ha: 62.5 g ai/ha, read-out: Barnyardgrass damage rating (100=total damage to plant; 0=no damage to plant); for pest or weed control at 62.5 g/ha / pest or weed control at 250 g/ha: evaluated after 13 days; for pest or weed control at 250 g/ha: 250 g ai/ha, read-out: damage to plant, Barnyardgrass (100=total damage to plant; 0=no damage to plant)
Procedure, shortened: (§2)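 Pot-grown seedlings, 8 days old, raised in a glasshouse at 24/16 °C day/night with 14 h light and 65% humidity, were sprayed post-emergence with test compound in acetone/water (50:50) plus 0.5% Tween 20 at 15.625, 62.5 or 250 g/ha. Damage was scored visually 13 days later on a 0–100 scale (100 = total damage).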

corn (Zea mays) [8] = assay: Test G Post-Emergence Protocol; settings: Zea mays, post-emergence, 312 h; for plant injury at 15.625 g/ha: 15.625 g ai/ha, evaluated after 13 days (100=total damage to plant; 0=no damage to plant), read-out: Corn damage rating; for plant injury at 62.5 g/ha: 62.5 g ai/ha, read-out: Corn damage rating (100=total damage to plant; 0=no damage to plant); for plant injury at 62.5 g/ha / plant injury at 250 g/ha: evaluated after 13 days; for plant injury at 250 g/ha: 250 g ai/ha, read-out: damage to plant, Corn (100=total damage to plant; 0=no damage to plant)
Procedure, shortened: as §2

[9] = system: giant foxtail (Setaria faberi); assay: Test G Post-Emergence Protocol; settings: Setaria faberi, post-emergence, 312 h; for pest or weed control at 15.625 g/ha: 15.625 g ai/ha, evaluated after 13 days (100=total damage to plant; 0=no damage to plant), read-out: Foxtail, Giant damage rating; for pest or weed control at 62.5 g/ha: 62.5 g ai/ha, read-out: Foxtail, Giant damage rating (100=total damage to plant; 0=no damage to plant); for pest or weed control at 62.5 g/ha / pest or weed control at 250 g/ha: evaluated after 13 days; for pest or weed control at 250 g/ha: 250 g ai/ha, read-out: damage to plant, Foxtail, Giant (100=total damage to plant; 0=no damage to plant)
Procedure, shortened: as §2

[10] = system: ivy-leaved morning glory (Ipomoea hederacea); assay: Test G Post-Emergence Protocol; settings: Ipomoea, post-emergence, 312 h; for pest or weed control at 15.625 g/ha: 15.625 g ai/ha, evaluated after 13 days (100=total damage to plant; 0=no damage to plant), read-out: Morningglory, Ivy-leaved damage rating; for pest or weed control at 62.5 g/ha: 62.5 g ai/ha, read-out: Morningglory, Ivy-leaved damage rating (100=total damage to plant; 0=no damage to plant); for pest or weed control at 62.5 g/ha / pest or weed control at 250 g/ha: evaluated after 13 days; for pest or weed control at 250 g/ha: 250 g ai/ha, read-out: damage to plant, Morningglory, Ivy-leaved (100=total damage to plant; 0=no damage to plant)
Procedure, shortened: as §2

[11] = system: redroot pigweed (Amaranthus retroflexus); assay: Test G Post-Emergence Protocol; settings: Amaranthus retroflexus, post-emergence, 312 h; for pest or weed control at 15.625 g/ha: 15.625 g ai/ha, evaluated after 13 days (100=total damage to plant; 0=no damage to plant), read-out: Pigweed, Redroot damage rating; for pest or weed control at 62.5 g/ha: 62.5 g ai/ha, read-out: Pigweed, Redroot damage rating (100=total damage to plant; 0=no damage to plant); for pest or weed control at 62.5 g/ha / pest or weed control at 250 g/ha: evaluated after 13 days; for pest or weed control at 250 g/ha: 250 g ai/ha, read-out: damage to plant, Pigweed, Redroot (100=total damage to plant; 0=no damage to plant)
Procedure, shortened: as §2

[12] = system: velvetleaf (Abutilon theophrasti); assay: Test G Post-Emergence Protocol; settings: Abutilon theophrasti, post-emergence, 312 h; for pest or weed control at 15.625 g/ha: 15.625 g ai/ha, evaluated after 13 days (100=total damage to plant; 0=no damage to plant), read-out: Velvetleaf damage rating; for pest or weed control at 62.5 g/ha: 62.5 g ai/ha, read-out: Velvetleaf damage rating (100=total damage to plant; 0=no damage to plant); for pest or weed control at 62.5 g/ha / pest or weed control at 250 g/ha: evaluated after 13 days; for pest or weed control at 250 g/ha: 250 g ai/ha, read-out: damage to plant, Velvetleaf (100=total damage to plant; 0=no damage to plant)
Procedure, shortened: as §2

SMILES | pest or weed control at 15.625 g/ha [1] [%] | pest or weed control at 62.5 g/ha [1] [%] | pest or weed control at 250 g/ha [1] [%] | plant injury at 15.625 g/ha (corn (Zea mays) [2]) [%] | plant injury at 62.5 g/ha (corn (Zea mays) [2]) [%] | plant injury at 250 g/ha (corn (Zea mays) [2]) [%] | pest or weed control at 15.625 g/ha [3] [%] | pest or weed control at 62.5 g/ha [3] [%] | pest or weed control at 250 g/ha [3] [%] | pest or weed control at 15.625 g/ha [4] [%] | pest or weed control at 62.5 g/ha [4] [%] | pest or weed control at 250 g/ha [4] [%] | pest or weed control at 15.625 g/ha [5] [%] | pest or weed control at 62.5 g/ha [5] [%] | pest or weed control at 250 g/ha [5] [%] | pest or weed control at 15.625 g/ha [6] [%] | pest or weed control at 62.5 g/ha [6] [%] | pest or weed control at 250 g/ha [6] [%] | pest or weed control at 15.625 g/ha [7] [%] | pest or weed control at 62.5 g/ha [7] [%] | also measured
Cc1cc(NC(=O)[C@@H]2C(=O)N(C)C[C@H]2c2ccc(C(F)(F)F)cc2)ccc1F (racemic) [Compound 1593] | 0 | 0 | 20 | 0 | 0 | 0 | 0 | 10 | 70 | 0 | 0 | 0 | 0 | 0 | 0 | 0 | 0 | 0 | 0 | 0 | pest or weed control at 250 g/ha [7]: 20%; plant injury at 15.625 g/ha (corn (Zea mays) [8]): 0%; plant injury at 62.5 g/ha (corn (Zea mays) [8]): 10%; plant injury at 250 g/ha (corn (Zea mays) [8]): 10%; pest or weed control at 15.625 g/ha [9]: 0%; pest or weed control at 62.5 g/ha [9]: 10%; pest or weed control at 250 g/ha [9]: 70%; pest or weed control at 15.625 g/ha [10]: 0%; pest or weed control at 62.5 g/ha [10]: 0%; pest or weed control at 250 g/ha [10]: 0%; pest or weed control at 15.625 g/ha [11]: 0%; pest or weed control at 62.5 g/ha [11]: 0%; pest or weed control at 250 g/ha [11]: 0%; pest or weed control at 15.625 g/ha [12]: 0%; pest or weed control at 62.5 g/ha [12]: 0%; pest or weed control at 250 g/ha [12]: 0%
Cc1ncc(NC(=O)[C@@H]2C(=O)N(C)C[C@H]2c2ccc(C(F)(F)F)cc2)s1 (racemic) [Compound 1595] | 0 | 0 | 0 | 0 | 0 | 0 | 0 | 0 | 0 | 0 | 0 | 0 | 0 | 0 | 0 | 0 | 0 | 0 | 10 | 10 | pest or weed control at 250 g/ha [7]: 10%; plant injury at 15.625 g/ha (corn (Zea mays) [8]): 0%; plant injury at 62.5 g/ha (corn (Zea mays) [8]): 60%; plant injury at 250 g/ha (corn (Zea mays) [8]): 0%; pest or weed control at 15.625 g/ha [9]: 0%; pest or weed control at 62.5 g/ha [9]: 0%; pest or weed control at 250 g/ha [9]: 10%; pest or weed control at 15.625 g/ha [10]: 0%; pest or weed control at 62.5 g/ha [10]: 60%; pest or weed control at 250 g/ha [10]: 20%; pest or weed control at 15.625 g/ha [11]: 0%; pest or weed control at 62.5 g/ha [11]: 10%; pest or weed control at 250 g/ha [11]: 20%; pest or weed control at 15.625 g/ha [12]: 0%; pest or weed control at 62.5 g/ha [12]: 10%; pest or weed control at 250 g/ha [12]: 10%
COc1cccc(NC(=O)[C@@H]2C(=O)N(C)C[C@H]2c2ccc(C(F)(F)F)cc2)n1 (racemic) [Compound 1601] | 0 | 10 | 70 | 0 | 0 | 0 | 0 | 20 | 80 | 0 | 0 | 0 | 0 | 0 | 50 | 0 | 0 | 0 | 0 | 40 | pest or weed control at 250 g/ha [7]: 70%; plant injury at 15.625 g/ha (corn (Zea mays) [8]): 0%; plant injury at 62.5 g/ha (corn (Zea mays) [8]): 10%; plant injury at 250 g/ha (corn (Zea mays) [8]): 30%; pest or weed control at 15.625 g/ha [9]: 0%; pest or weed control at 62.5 g/ha [9]: 80%; pest or weed control at 250 g/ha [9]: 70%; pest or weed control at 15.625 g/ha [10]: 0%; pest or weed control at 62.5 g/ha [10]: 10%; pest or weed control at 250 g/ha [10]: 30%; pest or weed control at 15.625 g/ha [11]: 0%; pest or weed control at 62.5 g/ha [11]: 10%; pest or weed control at 250 g/ha [11]: 30%; pest or weed control at 15.625 g/ha [12]: 0%; pest or weed control at 62.5 g/ha [12]: 20%; pest or weed control at 250 g/ha [12]: 50%
